Test results taken from ChEMBL document CHEMBL1667857, “Discovery of dual binding site acetylcholinesterase inhibitors identified by pharmacophore modeling and sequential virtual screening techniques” (Bioorg Med Chem Lett, 2011).

How the values were obtained:
Acetylcholinesterase = Acetylcholinesterase (Electrophorus electricus, UniProt O42275); experiment: Inhibition of electric eel AChE by Ellman's method
[1] = molecular target: Cholinesterase (Homo sapiens) (UniProt P06276); experiment: Inhibition of BChE by Ellman's method; settings: concentration not given here
Chain of Cholinesterase (Homo sapiens) (P06276 whole entry): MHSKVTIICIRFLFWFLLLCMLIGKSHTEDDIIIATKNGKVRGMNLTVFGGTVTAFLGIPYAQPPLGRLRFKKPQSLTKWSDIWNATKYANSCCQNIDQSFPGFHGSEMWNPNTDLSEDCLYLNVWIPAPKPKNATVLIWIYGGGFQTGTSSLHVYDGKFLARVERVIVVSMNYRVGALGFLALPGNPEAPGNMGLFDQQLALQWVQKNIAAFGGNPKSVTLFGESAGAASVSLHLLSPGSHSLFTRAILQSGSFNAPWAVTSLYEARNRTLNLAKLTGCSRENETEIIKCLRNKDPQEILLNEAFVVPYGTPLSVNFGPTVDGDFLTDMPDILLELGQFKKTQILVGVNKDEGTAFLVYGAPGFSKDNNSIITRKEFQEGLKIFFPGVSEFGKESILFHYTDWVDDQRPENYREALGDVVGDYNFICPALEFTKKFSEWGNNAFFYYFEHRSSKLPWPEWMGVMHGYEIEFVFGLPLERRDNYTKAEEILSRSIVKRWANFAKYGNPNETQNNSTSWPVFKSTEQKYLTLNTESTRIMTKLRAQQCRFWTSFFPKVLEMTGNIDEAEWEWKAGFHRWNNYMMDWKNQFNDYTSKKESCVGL

[2] = Selectivity index, ratio of IC50 for electric eel AChE to IC50 for BChE

Chain of Acetylcholinesterase (O42275 whole entry): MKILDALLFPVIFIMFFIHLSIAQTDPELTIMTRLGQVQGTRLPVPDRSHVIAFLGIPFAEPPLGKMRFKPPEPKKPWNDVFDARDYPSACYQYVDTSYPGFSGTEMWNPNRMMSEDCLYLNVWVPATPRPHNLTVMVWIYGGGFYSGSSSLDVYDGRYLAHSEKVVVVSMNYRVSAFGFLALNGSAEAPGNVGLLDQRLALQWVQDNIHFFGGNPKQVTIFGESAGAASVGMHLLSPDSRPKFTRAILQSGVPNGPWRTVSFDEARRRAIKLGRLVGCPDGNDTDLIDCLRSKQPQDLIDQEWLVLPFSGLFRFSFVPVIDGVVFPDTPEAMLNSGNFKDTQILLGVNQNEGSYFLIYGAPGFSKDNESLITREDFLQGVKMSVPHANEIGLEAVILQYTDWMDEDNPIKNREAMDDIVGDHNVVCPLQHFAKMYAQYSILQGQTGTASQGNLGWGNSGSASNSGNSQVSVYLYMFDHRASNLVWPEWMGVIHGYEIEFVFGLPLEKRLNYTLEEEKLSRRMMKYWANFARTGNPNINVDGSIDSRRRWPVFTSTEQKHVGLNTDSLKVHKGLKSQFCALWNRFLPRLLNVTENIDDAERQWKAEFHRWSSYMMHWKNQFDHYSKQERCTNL

Compound `COc1ccc(Br)cc1C(=O)Nc1ccc(CN2CCCCC2)cc1` has an IC50 (Acetylcholinesterase) of 1 µM.

`CCOC(=O)c1c(NC(=O)CCN2CCC(C)CC2)sc2c1C[C@@H](C)CC2` gave an inhibition [1] of under 10% and an IC50 (Acetylcholinesterase) of 5.99 µM.

In the case of `CCc1nc2sc3c(NCCN(C)C)ncnc3c2c2c1CCCC2`, the IC50 (Acetylcholinesterase) is reported as 1 µM.

In the case of `Cc1ccc(OCC(=O)Nc2ccc(CN3CCCCC3)cc2)c(C)c1`, the IC50 (Acetylcholinesterase) is reported as 1 µM.

`CCOC(=O)c1c(-c2ccc(OC)c(OC)c2)csc1NC(=O)CCN1CCC(C)CC1` showed an inhibition [1] of under 10% and an IC50 (Acetylcholinesterase) of 3.28 µM.

`CCc1nn(CC(=O)NCCCN2C[C@H](C)C[C@@H](C)C2)c(=O)c2cc3sc(C)cc3n12` showed a Ratio IC50 [2] of 698 and an IC50 (Acetylcholinesterase) of 2 µM.

`O=C(C1CCN(c2nnc(N3CCCC3=O)s2)CC1)N1CCCCCC1` showed a Ratio IC50 [2] of 342 and an IC50 (Acetylcholinesterase) of 1 µM.

With `O=C(CN1CCCCC1)Nc1ccc(NC(=O)CN2CCCCC2)c(Cl)c1` the IC50 (Acetylcholinesterase) was 1 µM.

`CCN(CC)c1ccc(NC(=O)c2nc3nc(C)cc(C(F)F)n3n2)cc1` gave an IC50 (Acetylcholinesterase) of 1 µM.

For `Cc1cc(N2CCCC2)nc2ccc(NC(=O)CCC(=O)NC3CCCCC3)cc12`, the IC50 (Acetylcholinesterase) was 1 µM.
